According to patent US20220289794A1, “SYNTHETIC ANTIMICROBIAL PEPTIDES” (priority 2019, published 2022):
Converted amounts (≈) assume the structure as drawn. Non-standard residues stand in square brackets, D forms with d. Residues, ends and D or L forms follow the SMILES beside them. Dip = N[C@H](C(=O)O)C(c1ccccc1)c1ccccc1; 2Nal = N[C@@H](Cc1ccc2ccccc2c1)C(=O)O; d2Nal = N[C@H](Cc1ccc2ccccc2c1)C(=O)O; Dab = NCC[C@H](N)C(=O)O

What was measured:
S. aureus ATCC 29213 = details: ATCC 29213
[1] = system: Pseudomonas aeruginosa (ATCC 27883); details: ATCC 27883
human red blood cells = system: human red blood cells; parameters: unit not given beside the values
[2] = system: Methicillin-resistant Staphylococcus aureus MRSA (ATCC BAA-1556); details: ATCC BAA-1556
[3] = system: Escherichia coli (ATCC 25922); details: ATCC 25922

MIC S. aureus ATCC 29213 (S. aureus ATCC 29213)	MIC P. aeruginosa ATCC 27883 [1]	HC50 (human red blood cells)	MIC MRSA ATCC BAA-1556 [2]	MIC E. coli ATCC 25922 [3]	SMILES
–	–	190	–	–	N=C(N)NCCC[C@@H]1NC(=O)[C@H](CCCNC(=N)N)NC(=O)[C@H](Cc2c[nH]c3ccccc23)NC(=O)[C@H](Cc2ccc3ccccc3c2)NC(=O)[C@H](Cc2ccc3ccccc3c2)NC(=O)[C@H](CCCNC(=N)N)NC1=O [IFX-025, c[Arg-Arg-Arg-NaI-NaI-Trp]] (cyclo(RRR[2Nal][2Nal]W))
–	–	860	–	–	N=C(N)NCCC[C@@H]1NC(=O)[C@H](CCCNC(=N)N)NC(=O)[C@H](CCCNC(=N)N)NC(=O)[C@H](C(c2ccccc2)c2ccccc2)NC(=O)[C@H](Cc2c[nH]c3ccccc23)NC(=O)[C@H](C(c2ccccc2)c2ccccc2)NC(=O)[C@H](CCCNC(=N)N)NC1=O [IFX-027, c[Arg-Arg-Arg-Arg-Dip-Trp-Dip]] (cyclo(RRRR[Dip]W[Dip]))
–	–	215	–	–	N=C(N)NCCC[C@@H]1NC(=O)[C@H](CCCNC(=N)N)NC(=O)[C@H](Cc2c[nH]c3ccccc23)NC(=O)[C@H](C(c2ccccc2)c2ccccc2)NC(=O)[C@H](C(c2ccccc2)c2ccccc2)NC(=O)[C@H](CCCNC(=N)N)NC1=O [IFX-022, c[Arg-Arg-Arg-Dip-Dip-Trp]] (cyclo([Dip][Dip]WRRR))
–	–	175	–	–	N=C(N)NCCC[C@@H]1NC(=O)[C@H](CCCNC(=N)N)NC(=O)[C@H](Cc2ccc3ccccc3c2)NC(=O)[C@H](Cc2ccc3ccccc3c2)NC(=O)[C@H](Cc2c[nH]c3ccccc23)NC(=O)[C@H](CCCNC(=N)N)NC1=O [IFX-023, c[Arg-Arg-Arg-Trp-NaI-NaI]] (cyclo(RRRW[2Nal][2Nal]))
–	–	240	–	–	N=C(N)NCCC[C@@H]1NC(=O)[C@H](CCCNC(=N)N)NC(=O)[C@H](CCCNC(=N)N)NC(=O)[C@H](C(c2ccccc2)c2ccccc2)NC(=O)[C@H](C(c2ccccc2)c2ccccc2)NC(=O)[C@H](Cc2c[nH]c3ccccc23)NC(=O)[C@H](CCCNC(=N)N)NC1=O [IFX-026, c[Arg-Arg-Arg-Arg-Trp-Dip-Dip]] (cyclo([Dip][Dip]RRRRW))

More lines, now with the values behind:

SMILES	MIC S. aureus ATCC 29213 (S. aureus ATCC 29213)	MIC P. aeruginosa ATCC 27883 [1]	HC50 (human red blood cells)	MIC MRSA ATCC BAA-1556 [2]	MIC E. coli ATCC 25922 [3]
NCCCC[C@@H]1NC(=O)[C@H](CCCCN)NC(=O)[C@H](CCCCN)NC(=O)[C@H](C(c2ccccc2)c2ccccc2)NC(=O)[C@H](C(c2ccccc2)c2ccccc2)NC(=O)[C@H](C(c2ccccc2)c2ccccc2)NC(=O)[C@H](CCCCN)NC(=O)[C@H](CCCCN)NC1=O [IFX-015, c[Lys-Lys-Lys-Lys-Lys-Dip-Dip-Dip]] (cyclo([Dip][Dip][Dip]KKKKK))	6.2 µg/mL (≈ 4.73 µM)	>100 µg/mL	480	12.5 µg/mL (≈ 9.54 µM)	50 µg/mL (≈ 38.1 µM)
N=C(N)NCCC[C@@H]1NC(=O)[C@H](CCN)NC(=O)[C@@H](Cc2ccc3ccccc3c2)NC(=O)[C@@H](Cc2ccc3ccccc3c2)NC(=O)[C@H](Cc2c[nH]c3ccccc23)NC(=O)[C@H](CCN)NC(=O)[C@@H](CCCNC(=N)N)NC(=O)[C@H](CCCNC(=N)N)NC(=O)[C@@H](CCCNC(=N)N)NC1=O [IFX-057, c[Dab-Arg-arg-Arg-arg-Dab-Trp-naI-naI]] (cyclo([Dab]R[dR]R[dR][Dab]W[d2Nal][d2Nal]))	16 µg/mL (≈ 11.4 µM)	32 µg/mL (≈ 22.8 µM)	520	32 µg/mL (≈ 22.8 µM)	32 µg/mL (≈ 22.8 µM)
N=C(N)NCCC[C@H](NC(=O)[C@H](CCCNC(=N)N)NC(=O)[C@H](CCCNC(=N)N)NC(=O)[C@@H](N)CCCNC(=N)N)C(=O)N[C@@H](Cc1c[nH]c2ccccc12)C(=O)N[C@@H](Cc1ccc2ccccc2c1)C(=O)N[C@@H](Cc1ccc2ccccc2c1)C(=O)O [IFX-029-1, NH2-R-R-R-R-Trp-NaI-NaI-OH] (H-RRRRW[2Nal][2Nal]-OH)	3.1 µg/mL (≈ 2.53 µM)	50 µg/mL (≈ 40.9 µM)	400	3.1 µg/mL (≈ 2.53 µM)	12.5 µg/mL (≈ 10.2 µM)
N=C(N)NCCC[C@@H]1NC(=O)[C@H](CCCNC(=N)N)NC(=O)[C@H](Cc2ccc3ccccc3c2)NC(=O)[C@H](Cc2c[nH]c3ccccc23)NC(=O)[C@H](Cc2ccc3ccccc3c2)NC(=O)[C@H](CCCNC(=N)N)NC1=O [IFX-024, c[Arg-Arg-Arg-NaI-Trp-NaI]] (cyclo(RRR[2Nal]W[2Nal]))	–	–	250	–	–
